According to PMC8351955, “Targeting Mycobacterium tuberculosis response to environmental cues for the development of effective antitubercular drugs” (PLoS Biology, 2021):
Several values for one entry are separate records, joined by “and”; a condition that tells them apart may be missing. Equal entries are not always repeated.

Tests used:
[1] = test system: macrophage phagosomal [Cl−] in BMDMs; experiment: Phagosomal maturation assay, BAC/AF594 beads (Cl− readout); type: cell-based, mouse
Protocol: Carboxyfluorescein (pH readout), DQ-BSA/Alexa Fluor 594 (AF594) (proteolysis readout), and BAC/AF594 (Cl^− readout) beads were generated essentially as previously described, except that 10,10′-Bis[3-carboxylpropyl]-9,9′-biacridinium dinitrate di-NHS ester (BAC-SE) was purchased from emp Biotech LLC. BMDMs were isolated from C57BL/6J mice (The Jackson Laboratory) and maintained as described above. […] Assay buffer consisted of PBS (pH 7.2), supplemented with 5% FBS, 5 mM dextrose, 1 mM CaCl2, 2.7 mM KCl, and 0.5 mM MgCl2 in the case of assays with the carboxyfluorescein or DQ-BSA/AF594 beads. For assays with the BAC/AF594 beads, assay buffer consisted of PBS (pH 7.2), supplemented with 5% FBS, 5 mM dextrose, 1 mM calcium acetate, 1.35 mM K2SO4, and 0.5 mM MgSO4 [9]. Sensor beads at approximately 2 to 5 beads/macrophage in appropriate assay buffer were finally added, with data acquisition on a Biotek Synergy H1 microplate reader with bottom read signal detection started within 2 to 3 minutes of bead addition. Excitation/emission wavelengths were 450 nm/520 nm and 490 nm/520 nm for carboxyfluorescein, 490 nm/520 nm for DQ-BSA, 365 nm/505 nm for BAC, and 590 nm/617 nm for AF594. Each experiment was run with a total of 3 to 5 replicate wells/condition, with temperature maintained at 37°C throughout the assay. Wells were read every 2 minutes for 2 hours for the carboxyfluorescein bead assays, every 2 minoutes for 4 hours for the DQ-BSA/AF594 bead assays, and every 1 minute for 2 hours for the BAC/AF594 bead assays. Analyses of the results were performed as previously described.

Mtb = experiment: Mouse Mtb infection, C3HeB/FeJ model, oral C6; type: in vivo, C3HeB/FeJ mice; conditions: for CFU/ml: individual values
Protocol: C3HeB/FeJ wild-type mice (The Jackson Laboratory) were infected intranasally with 10^3 CFUs of Mtb (35 μl), under light anesthesia with 2% isoflurane. […] The next day, the suspension was homogenized by bead beating with 5 mm steel beads in a TOMY microtube mixer (2 × 20 seconds) and stored at 4°C until use. […] Administration began at 2 or 6 weeks post-infection as indicated. At time of sacrifice, the left lobe and accessory right lobe of the lung were homogenized in PBS + 0.05% Tween 80 and serial dilutions plated on 7H10 agar plates with 100 μg/ml cycloheximide for bacterial load determination. The remaining 3 right lobes were fixed in 4% PFA in PBS. One lobe was used for histological analysis by standard hematoxylin and eosin (H&E) staining (Tufts Comparative Pathology Services). A Nikon Eclipse E400 with a SPOT insight color digital camera was used to image the histology samples.

[2] = Mouse liver microsomal stability; type: in vitro ADME; conditions: mouse liver microsomes; read-out: half-life (t1/2) in mouse liver microsomes
Protocol: (§1) Assays examining mouse and human liver microsomal stability, kinetic aqueous solubility, mouse and human plasma protein binding and stability, and human cytochrome P450 inhibition characteristics of the compounds were run by BioDuro (San Diego, CA), using standard protocols as previously described [37]. hERG inhibition assays were also performed by BioDuro.

CYP2C9 = CYP2C9 (Homo sapiens, UniProt P11712); experiment: Human cytochrome P450 inhibition, 2C9; type: in vitro ADME; conditions: read-out: % inhibition of CYP 2C9
Protocol: as §1

[3] = Mouse plasma protein binding; type: in vitro ADME
Protocol: as §1

[4] = Human liver microsomal stability; type: in vitro ADME; conditions: human liver microsomes; read-out: half-life (t1/2) in human liver microsomes

Chain of CYP2C9 (P11712 whole entry): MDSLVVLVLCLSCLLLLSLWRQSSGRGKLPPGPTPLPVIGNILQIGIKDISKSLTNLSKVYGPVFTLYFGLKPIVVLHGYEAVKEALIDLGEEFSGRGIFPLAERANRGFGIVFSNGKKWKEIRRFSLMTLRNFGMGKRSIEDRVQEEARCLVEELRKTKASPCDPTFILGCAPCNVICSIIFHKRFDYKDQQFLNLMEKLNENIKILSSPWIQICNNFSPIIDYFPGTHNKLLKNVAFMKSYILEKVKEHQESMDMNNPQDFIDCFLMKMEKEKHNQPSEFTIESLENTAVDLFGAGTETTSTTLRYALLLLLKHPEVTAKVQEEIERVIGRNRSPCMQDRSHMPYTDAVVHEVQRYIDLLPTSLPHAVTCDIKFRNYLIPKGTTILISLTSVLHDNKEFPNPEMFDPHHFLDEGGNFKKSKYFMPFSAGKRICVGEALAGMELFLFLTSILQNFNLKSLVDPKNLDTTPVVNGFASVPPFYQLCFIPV

## CCSc1ncc(CN2CCN(c3nc4ccccc4o3)CC2)cn1 [C6, 2-(4-((2-(ethylthio)pyrimidin-5-yl)methyl)piperazin-1-yl)benzo[d]oxazole]
[1]; 10 μM, uninfected BMDMs
  Effect on increase in [Cl−] during macrophage phagosomal maturation: no significant effect
[1]; Time 0 minutes
  AF594/BAC fluorescence, Average: 0.6122
  AF594/BAC fluorescence, replicates: 0.5839 and 0.6162 and 0.6235 and 0.6146 and 0.6227
[1]; Time 1 minutes
  AF594/BAC fluorescence, Average: 0.5459
  AF594/BAC fluorescence, replicates: 0.5421 and 0.5573 (2×) and 0.546 and 0.5266
[1]; Time 2 minutes
  AF594/BAC fluorescence, Average: 0.5408
  AF594/BAC fluorescence, replicates: 0.5319 and 0.5419 and 0.5358 and 0.5431 and 0.5513
[1]; Time 3 minutes
  AF594/BAC fluorescence, Average: 0.5344
  AF594/BAC fluorescence, replicates: 0.5344 and 0.5364 and 0.543 and 0.5118 and 0.5462
[1]; Time 4 minutes
  AF594/BAC fluorescence, Average: 0.5424
  AF594/BAC fluorescence, replicates: 0.5625 and 0.5432 and 0.5412 and 0.5272 and 0.538
[1]; Time 5 minutes
  AF594/BAC fluorescence, Average: 0.5329
  AF594/BAC fluorescence, replicates: 0.545 and 0.5366 and 0.532 and 0.5179 and 0.5328
[1]; Time 7 minutes
  AF594/BAC fluorescence, Average: 0.5364
  AF594/BAC fluorescence, replicates: 0.548 and 0.5294 and 0.5467 and 0.5183 and 0.5395
[1]; Time 9 minutes
  AF594/BAC fluorescence, Average: 0.5382
  AF594/BAC fluorescence, replicates: 0.5413 and 0.5472 and 0.5302 and 0.5353 and 0.5369
[1]; Time 11 minutes
  AF594/BAC fluorescence, Average: 0.548
  AF594/BAC fluorescence, replicates: 0.555 and 0.5414 and 0.5741 and 0.5202 and 0.5492
[1]; Time 13 minutes
  AF594/BAC fluorescence, Average: 0.5691
  AF594/BAC fluorescence, replicates: 0.5666 and 0.5688 and 0.5877 and 0.5543 and 0.5682
[1]; Time 15 minutes
  AF594/BAC fluorescence, Average: 0.5821
  AF594/BAC fluorescence, replicates: 0.5799 and 0.5786 and 0.5955 and 0.5676 and 0.5889
[1]; Time 17 minutes
  AF594/BAC fluorescence, Average: 0.5935
  AF594/BAC fluorescence, replicates: 0.5853 and 0.6046 and 0.6099 and 0.5629 and 0.6045
[1]; Time 19 minutes
  AF594/BAC fluorescence, Average: 0.603
  AF594/BAC fluorescence, replicates: 0.5752 and 0.6161 and 0.6348 and 0.5964
[1]; Time 21 minutes
  AF594/BAC fluorescence, Average: 0.6193
[1]; Time 23 minutes
  AF594/BAC fluorescence, Average: 0.618
[1]; Time 25 minutes
  AF594/BAC fluorescence, Average: 0.6229
[1]; Time 27 minutes
  AF594/BAC fluorescence, Average: 0.6239
[1]; Time 29 minutes
  AF594/BAC fluorescence, Average: 0.6453
[1]; Time 31 minutes
  AF594/BAC fluorescence, Average: 0.6313
[1]; Time 33 minutes
  AF594/BAC fluorescence, Average: 0.6482
[1]; Time 35 minutes
  AF594/BAC fluorescence, Average: 0.6392
[1]; Time 37 minutes
  AF594/BAC fluorescence, Average: 0.6481
[1]; Time 39 minutes
  AF594/BAC fluorescence, Average: 0.6418
[1]; Time 41 minutes
  AF594/BAC fluorescence, Average: 0.6532
[1]; Time 43 minutes
  AF594/BAC fluorescence, Average: 0.6524
[1]; Time 45 minutes
  AF594/BAC fluorescence, Average: 0.6458
[1]; Time 46 minutes
  AF594/BAC fluorescence, Average: 0.6438
[1]; Time 47 minutes
  AF594/BAC fluorescence, Average: 0.6518
[1]; Time 48 minutes
  AF594/BAC fluorescence, Average: 0.6423
[1]; Time 49 minutes
  AF594/BAC fluorescence, Average: 0.6502
[1]; Time 50 minutes
  AF594/BAC fluorescence, Average: 0.6427
[1]; Time 51 minutes
  AF594/BAC fluorescence, Average: 0.6412
[1]; Time 52 minutes
  AF594/BAC fluorescence, Average: 0.6437
[1]; Time 53 minutes
  AF594/BAC fluorescence, Average: 0.6415
[1]; Time 54 minutes
  AF594/BAC fluorescence, Average: 0.6535
[1]; Time 55 minutes
  AF594/BAC fluorescence, Average: 0.646
[1]; Time 56 minutes
  AF594/BAC fluorescence, Average: 0.6496
[1]; Time 57 minutes
  AF594/BAC fluorescence, Average: 0.6559
[1]; Time 58 minutes
  AF594/BAC fluorescence, Average: 0.6523
[1]; Time 59 minutes
  AF594/BAC fluorescence, Average: 0.6473
[1]; Time 60 minutes
  AF594/BAC fluorescence, Average: 0.6412
[1]; Time 61 minutes
  AF594/BAC fluorescence, Average: 0.6401
[1]; Time 62 minutes
  AF594/BAC fluorescence, Average: 0.6424
[1]; Time 63 minutes
  AF594/BAC fluorescence, Average: 0.6429
[1]; Time 64 minutes
  AF594/BAC fluorescence, Average: 0.6497
[1]; Time 65 minutes
  AF594/BAC fluorescence, Average: 0.6542
[1]; Time 66 minutes
  AF594/BAC fluorescence, Average: 0.6415
[1]; Time 67 minutes
  AF594/BAC fluorescence, Average: 0.656
[1]; time 6 minutes
  AF594/BAC fluorescence, Average: 0.5344
  AF594/BAC fluorescence, replicates: 0.55 and 0.5263 and 0.5408 and 0.5119 and 0.5432
[1]; time 8 minutes
  AF594/BAC fluorescence, Average: 0.5381
  AF594/BAC fluorescence, replicates: 0.5319 and 0.5466 and 0.5386 and 0.538 and 0.5353
[1]; time 10 minutes
  AF594/BAC fluorescence, Average: 0.5471
  AF594/BAC fluorescence, replicates: 0.5453 and 0.5491 and 0.5758 and 0.5298 and 0.5354
[1]; time 12 minutes
  AF594/BAC fluorescence, Average: 0.5563
  AF594/BAC fluorescence, replicates: 0.5501 and 0.57 and 0.5742 and 0.5198 and 0.5673
[1]; time 14 minutes
  AF594/BAC fluorescence, Average: 0.5706
  AF594/BAC fluorescence, replicates: 0.5628 and 0.5864 and 0.5841 and 0.542 and 0.5776
[1]; time 16 minutes
  AF594/BAC fluorescence, Average: 0.5854
  AF594/BAC fluorescence, replicates: 0.5806 and 0.5704 and 0.6264 and 0.5665 and 0.5832
[1]; time 18 minutes
  AF594/BAC fluorescence, Average: 0.5961
  AF594/BAC fluorescence, replicates: 0.5808 and 0.5961 and 0.6277 and 0.5767 and 0.5992
[1]; time 20 minutes
  AF594/BAC fluorescence, Average: 0.6147
  AF594/BAC fluorescence, replicates: 0.6043
[1]; time 22 minutes
  AF594/BAC fluorescence, Average: 0.6194
[1]; time 24 minutes
  AF594/BAC fluorescence, Average: 0.6332
[1]; time 26 minutes
  AF594/BAC fluorescence, Average: 0.631
[1]; time 28 minutes
  AF594/BAC fluorescence, Average: 0.638
[1]; time 30 minutes
  AF594/BAC fluorescence, Average: 0.6338
[1]; time 32 minutes
  AF594/BAC fluorescence, Average: 0.6382
[1]; time 34 minutes
  AF594/BAC fluorescence, Average: 0.6489
[1]; time 36 minutes
  AF594/BAC fluorescence, Average: 0.6508
[1]; time 38 minutes
  AF594/BAC fluorescence, Average: 0.652
[1]; time 40 minutes
  AF594/BAC fluorescence, Average: 0.6508
[1]; time 42 minutes
  AF594/BAC fluorescence, Average: 0.6499
[1]; time 44 minutes
  AF594/BAC fluorescence, Average: 0.6458
Mtb; 250 mg/kg oral gavage 5 times a week for 2 weeks, started 2 weeks post-infection
  Lung bacterial load, short-term infection model: significantly inhibited Mtb growth
Mtb; 250 mg/kg oral gavage for 2 or 4 weeks, started 6 weeks post-infection
  Lung bacterial load, longer-term infection model: significant decrease in bacterial load
Mtb; 250 mg/kg, 2-week treatment from 2 weeks post-infection
  Lung histology, short-term infection model: less cellular infiltration
Mtb; 250 mg/kg, 2 or 4 weeks treatment from 6 weeks post-infection
  Lung histopathology, longer-term infection model: improved histopathology
Mtb; Fig. 4A, 4 weeks (pre-treatment 2 weeks)
  CFU/ml: 5260000 CFU/ml and 1940000 CFU/ml and 7340000 CFU/ml and 338000 CFU/ml and 3180000 CFU/ml and 1920000 CFU/ml and 1820000 CFU/ml and 13560000 CFU/ml
Mtb; Fig. 4C, 8 weeks (pre-treatment 6 weeks)
  CFU/ml: 38000 CFU/ml and 860000 CFU/ml and 9200000 CFU/ml and 3340000 CFU/ml and 4100000 CFU/ml and 2340000 CFU/ml and 68000 CFU/ml and 304000 CFU/ml and 270000000 CFU/ml and 3980000 CFU/ml and 234000 CFU/ml and 64000 CFU/ml and 21800 CFU/ml and 62000 CFU/ml
Mtb; Fig. 4C, 10 weeks (pre-treatment 6 weeks)
  CFU/ml: 338000 CFU/ml and 29000 CFU/ml and 2660 CFU/ml and 228000 CFU/ml and 188000 CFU/ml and 43000000 CFU/ml and 112000 CFU/ml and 17800000 CFU/ml and 926000 CFU/ml and 42800000 CFU/ml and 132000 CFU/ml and 118000 CFU/ml and 720000 CFU/ml
[2]
  half-life: 48.5 min
CYP2C9
  inhibition at 10 µM: 25.7%
[3]
  fraction unbound: 0.03
[4]
  half-life: 37.6 min
